Experimental data reported in the NIST ThermoML archive (doi:10.1021/acs.jced.9b00540).

How the values were obtained:
[1] = Liquid, Falling or rolling sphere viscometry
[2] = xn = mol fraction of the nth substance listed; conditions: Liquid, x2 = 0

CCOC(F)(C(F)(F)C(F)(F)C(F)(F)F)C(F)(C(F)(F)F)C(F)(F)F (stereo not given) [2-trifluoromethyl-3-ethoxydodecafluorohexane]
viscosity [mPa·s], [1]
Conditions | 100 kPa | 20000 kPa | 40000 kPa | 60000 kPa | 80000 kPa | 100000 kPa
293.15 K | 1.369 | 1.894 | 2.645 | 3.622 | 4.894 | 6.553
313.15 K | 0.983 | 1.356 | 1.869 | 2.51 | 3.31 | 4.307
333.15 K | 0.739 | 1.032 | 1.41 | 1.87 | 2.427 | 3.105
353.15 K | 0.576 | 0.799 | 1.084 | 1.418 | 1.808 | 2.265

CC(C)OC(C)C [diisopropyl ether]
viscosity [mPa·s], [1]
Conditions | 100 kPa | 20000 kPa | 40000 kPa | 60000 kPa | 80000 kPa | 100000 kPa
293.15 K | 0.33 | 0.396 | 0.466 | 0.542 | 0.625 | 0.715
313.15 K | 0.27 | 0.332 | 0.392 | 0.454 | 0.52 | 0.588
333.15 K | 0.225 | 0.282 | 0.342 | 0.402 | 0.46 | 0.517
353.15 K | – | 0.258 | 0.308 | 0.358 | 0.408 | 0.457

CC(C)OC(C)C [diisopropyl ether] + CCOC(F)(C(F)(F)C(F)(F)C(F)(F)F)C(F)(C(F)(F)F)C(F)(F)F
viscosity [mPa·s], [2]
Conditions | 293.15 K | 313.15 K | 333.15 K | 353.15 K
100 kPa, Capillary tube (Ostwald / Ubbelohde) method | 0.33 | 0.27 | 0.225 | –
20000 kPa, Falling or rolling sphere viscometry | 0.396 | 0.332 | 0.282 | 0.258
40000 kPa, Falling or rolling sphere viscometry | 0.466 | 0.392 | 0.342 | 0.308
60000 kPa, Falling or rolling sphere viscometry | 0.542 | 0.454 | 0.402 | 0.358
80000 kPa, Falling or rolling sphere viscometry | 0.625 | 0.52 | 0.46 | 0.408
100000 kPa, Falling or rolling sphere viscometry | 0.715 | 0.588 | 0.517 | 0.457
